This is an account of results in PubChem BioAssay (NCI).

Test systems include ACHN renal; HOP-18 NSCLC; KM12 colon; KM20L2 colon; SR leukemia; UACC-257 melanoma; UACC-62 melanoma; K-562 leukemia; OVCAR-5 ovarian; T-47D breast.
Holding throughout (test): NCI tumour cell line growth inhibition, 48 h

Where “and” joins values, the source holds several entries; their conditions need not be identical. Equal values may be shown once.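 These data come from cells grown in 96-well plates and exposed to compound for 48 hours at five concentrations. Abbreviation: GI50, concentration required for 50% inhibition of growth. TGI: concentration producing complete growth inhibition.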

In the case of `Cc1ccc(C)c(N2C(=O)C(=O)C(c3nc4ccccc4o3)C(=O)C2=O)c1`, the TGI in the experiment on ACHN renal, with HOP-18 NSCLC, in the experiment with KM12 colon, in the experiment with KM20L2 colon, in the experiment with SR leukemia and with UACC-257 melanoma was greater than 100 µM each time. For the same compound, the TGI in the experiment with UACC-62 melanoma was greater than 100 µM.
Take `Cc1ccc(NC(=O)C(=O)CC(=O)c2c(C)n([O-])c3ccccc3[n+]2=O)cc1C`: the TGI in the experiment with ACHN renal, with HOP-18 NSCLC, in the experiment on K-562 leukemia, in the experiment with KM12 colon, in the experiment on KM20L2 colon and in the experiment on OVCAR-5 ovarian was greater than 100 µM throughout. Also, the TGI with SR leukemia, in the experiment on UACC-257 melanoma and in the experiment on UACC-62 melanoma was greater than 100 µM in each case.
Regarding `Cc1cccc(C(=O)O)c1C(=O)c1cccc2ccccc12`, the TGI in the experiment on ACHN renal, in the experiment with HOP-18 NSCLC, in the experiment on K-562 leukemia, in the experiment with KM12 colon, in the experiment on KM20L2 colon and with OVCAR-5 ovarian was greater than 100 µM in each case. The TGI in the experiment with SR leukemia, with UACC-257 melanoma and with UACC-62 melanoma was greater than 100 µM each time.
Regarding `CCCCCC(=O)Nc1nc2nc[nH]c2c(=O)[nH]1`, the TGI in the experiment with ACHN renal, in the experiment on HOP-18 NSCLC, in the experiment on K-562 leukemia, in the experiment on KM12 colon, with KM20L2 colon and in the experiment with OVCAR-5 ovarian was greater than 100 µM in each case. The TGI in the experiment with SR leukemia, in the experiment with UACC-257 melanoma and with UACC-62 melanoma was greater than 100 µM in each case.
For the compound `CS(=O)(=O)OCCCNCCCOS(C)(=O)=O`, the TGI worked out at 3580 µM in the experiment with ACHN renal; 2560 µM in the experiment with HOP-18 NSCLC; 9080 µM with K-562 leukemia; 5510 µM with KM12 colon; 5860 µM in the experiment on KM20L2 colon; 6290 µM with OVCAR-5 ovarian. In addition, the TGI with SR leukemia turned out to be 2970 µM; with T-47D breast, 6740 µM; with UACC-257 melanoma, 5310 µM; with UACC-62 melanoma it was 4260 µM.
With `COc1ccc2nc(C(=O)c3ccccc3)c(C)cc2c1`, the TGI in the experiment with ACHN renal is greater than 100 µM; in the experiment with HOP-18 NSCLC, greater than 52 µM; with K-562 leukemia, greater than 100 µM; in the experiment on KM12 colon, greater than 45.8 µM; with KM20L2 colon, 11 µM; in the experiment with OVCAR-5 ovarian, greater than 100 µM. In addition, the TGI with SR leukemia was greater than 100 µM; in the experiment on UACC-257 melanoma, 26.4 µM; with UACC-62 melanoma, greater than 100 µM.
Take `N#Cc1ccccc1NC(=O)C(=O)C1NC(=S)NC1=O` (stereo unspecified): the TGI in the experiment with ACHN renal, with HOP-18 NSCLC, in the experiment with K-562 leukemia, in the experiment with KM12 colon, with KM20L2 colon and with OVCAR-5 ovarian was greater than 100 µM in each case. Besides, the TGI in the experiment with SR leukemia, in the experiment with UACC-257 melanoma and with UACC-62 melanoma was greater than 100 µM in each case.
Turning to `CC1OC(=O)C(O)=C1O` (stereo unspecified), the TGI with ACHN renal, in the experiment with HOP-18 NSCLC, in the experiment on K-562 leukemia, with KM12 colon, in the experiment on KM20L2 colon and in the experiment on OVCAR-5 ovarian was greater than 100 µM each time. Further, the TGI with SR leukemia, in the experiment with UACC-257 melanoma and in the experiment with UACC-62 melanoma was greater than 100 µM throughout.
For `NC1c2ccccc2Nc2ccccc21`, the TGI in the experiment on ACHN renal was found to be 24.6 µM; in the experiment on HOP-18 NSCLC, 39.7 µM; in the experiment with K-562 leukemia it was 14.5 µM; in the experiment on KM12 colon, 17 µM; with KM20L2 colon it was 14.3 µM; with OVCAR-5 ovarian, 25.6 µM. Besides, the TGI with SR leukemia was found to be 7.24 µM; in the experiment with UACC-257 melanoma it was 17.4 µM; in the experiment with UACC-62 melanoma it was 15.5 µM.
On to `CN(C)CC1CC/C(=C\c2ccc3c(c2)OCO3)C1=O` (stereo unspecified), for which the TGI with ACHN renal was 28.5 µM; in the experiment with HOP-18 NSCLC it was 29.7 µM; in the experiment with K-562 leukemia it was 11.4 µM; in the experiment with KM12 colon, 18.9 µM; in the experiment on KM20L2 colon, 36.5 µM; in the experiment with OVCAR-5 ovarian, 39.3 µM. For the same compound, the TGI was 11 µM with SR leukemia, 20.1 µM in the experiment on UACC-257 melanoma and 30.4 µM with UACC-62 melanoma.
For `N#CC(C(=O)CCCC(=O)Nc1ccc(Cl)cc1Cl)c1ccccc1` (stereo unspecified), the TGI in the experiment on ACHN renal, with HOP-18 NSCLC, in the experiment on K-562 leukemia, with KM12 colon, with KM20L2 colon and with OVCAR-5 ovarian was greater than 100 µM in each case. The TGI in the experiment with SR leukemia, in the experiment on UACC-257 melanoma and in the experiment on UACC-62 melanoma was greater than 100 µM in each case.
As to `C1CN(c2nnc(N3CCC3)nn2)C1`, the TGI in the experiment on ACHN renal is greater than 92.1 µM; with HOP-18 NSCLC, greater than 100 µM; in the experiment with K-562 leukemia, greater than 31.6 µM; in the experiment on KM12 colon, greater than 100 µM; in the experiment on KM20L2 colon, greater than 63.7 µM; in the experiment on OVCAR-5 ovarian, greater than 46.4 µM. Moreover, the TGI in the experiment with SR leukemia is greater than 100 µM; with T-47D breast, greater than 100 µM; in the experiment on UACC-257 melanoma it was 49.4 µM; with UACC-62 melanoma, 38.5 µM.
Regarding `CC1=C(C(=O)Nc2ccccc2)C(c2ccccc2Cl)C(C(=O)Nc2ccccc2)=C(C)N1`, the TGI turned out to be 94.1 µM in the experiment on ACHN renal; 56.5 µM in the experiment on HOP-18 NSCLC; 93.5 µM in the experiment on K-562 leukemia; 38.9 µM in the experiment with KM20L2 colon; 61.2 µM with OVCAR-5 ovarian; 52.6 µM in the experiment on SR leukemia. Besides, the TGI with UACC-257 melanoma stood at 38.5 µM; in the experiment with UACC-62 melanoma, 27.2 µM.
As to `Cc1c(C(=O)O)n(C)c(=O)n(C)c1=O`, the TGI in the experiment on ACHN renal, in the experiment with HOP-18 NSCLC, in the experiment with K-562 leukemia, in the experiment with KM12 colon, in the experiment on KM20L2 colon and in the experiment with OVCAR-5 ovarian was greater than 100 µM in each case. The TGI in the experiment with UACC-257 melanoma and in the experiment with UACC-62 melanoma was greater than 100 µM each time.
With `Cc1cc(-c2c(F)cc3c4nn([C@H]5CC[C@@H](N(C)C)CC5)c(=O)c-4cn(C4CC4)c3c2F)cc(C)n1`, the GI50 is 0.0219 µM in the experiment with ACHN renal, 0.164 µM in the experiment on K-562 leukemia, 0.002 µM with SR leukemia and 0.0468 µM in the experiment on UACC-62 melanoma. For the same compound, the TGI is 0.171 µM and 0.928 µM in the experiment on ACHN renal; 0.919 µM in the experiment on HOP-18 NSCLC; 1.11 µM in the experiment on KM12 colon; 0.462 µM in the experiment on KM20L2 colon; 14.2 µM in the experiment with OVCAR-5 ovarian; 0.0268 µM in the experiment on SR leukemia. Further, the TGI in the experiment with T-47D breast is 2.76 µM; with UACC-257 melanoma it was 5.77 µM; in the experiment with UACC-62 melanoma it was 0.255 µM and 0.754 µM.
For `C1CCCCc2nc3c(nc2CCC1)c1nc2c(nc1c1nc4c(nc31)CCCCCCCC4)CCCCCCCC2`, the TGI in the experiment on ACHN renal, with HOP-18 NSCLC, in the experiment with K-562 leukemia, with KM12 colon, in the experiment with KM20L2 colon and in the experiment with OVCAR-5 ovarian was greater than 100 µM in each case. The TGI with SR leukemia, in the experiment on UACC-257 melanoma and in the experiment with UACC-62 melanoma was greater than 100 µM throughout.
